Data on 27 compounds can be found in US10806726B2, “Methods of using indazole-3-carb oxamides and their use as Wnt/B-catenin signaling pathway inhibitors” (Samumed, LLC, priority 2016, dated 2020).

In test [1] the test system is primary human mesenchymal stem cells (hMSCs). Briefly: Tenocyte differentiation screening in hMSCs (SCXA-positive cells, 4 days). Format: cell-based. The settings on record: 96 h, fold change over DMSO. From the text:
Representative compounds were screened using primary human mesenchymal stem cells (hMSCs) to determine their ability to induce tenocyte differentiation (process by which tendon is developed).
Primary human mesenchymal stem cells (hMSCs) were purchased from Lonza (Walkersville, Md.) and expanded in Mesenchymal Stem Cell Growth Media (Lonza). Cells between passage 3 and 6 were used for the experiments.
Cells were fixed using 4% formaldehyde (Electron Microscopy Sciences), and stained with anti-Sclerasis (anti-SCXA) antibodies (Abgent, San Diego, Calif.) [Webb S., et. al., Retinoic acid receptor signaling preserves tendon stem cell characteristics and prevents spontaneous differentiation in vitro, Stem Cell Research & Therapy 2016, 7:45] overnight at 4° C. […] Number of cells positive for SCXA in each well was quantified using the Celllnsight CX5. Data was normalized to the average of 12 DMSO treated wells on the same plate using Dotmatics Studies module. The normalized averages (fold change over DMSO) of 3 replicate wells for each compound concentration were calculated. Due to solubility limitations of some of the compounds, values for higher doses were manually corrected and curve fitting and EC50 determinations were performed using Dotmatics Studies.
EC50 for each compound is reported.

Test [2] concerns Wnt-responsive promoter driving firefly luciferase in SW480 cells. Briefly: Wnt reporter (SP5 promoter-luciferase) screening assay in SW480 cells. The following applies: Homo sapiens, 24-40 h, top concentration ten micromolar. It counts as cell-based. From the text:
Another screening assay for Wnt activity is described as follows. Reporter cell lines can be generated by stably transducing cells of cancer cell lines (e.g., colon cancer) with a lentiviral construct that include a Wnt-responsive promoter driving expression of the firefly luciferase gene.
Lentiviral constructs can be made in which the SP5 promoter, a promoter having eight TCF/LEF binding sites derived from the SP5 promoter, is linked upstream of the firefly luciferase gene. The lentiviral constructs can also include a hygromycin resistance gene as a selectable marker. The SP5 promoter construct can be used to transduce SW480 cells, a colon cancer cell line having a mutated APC gene that generates a truncated APC protein, leading to de-regulated accumulation of β-catenin.
Cultured SW480 cells bearing a reporter construct can be distributed at approximately 10,000 cells per well into 96 well or 384 well plates. Compounds from a small molecule compound library can then be added to the wells in half-log dilutions using a ten micromolar top concentration. A series of control wells for each cell type receive only buffer and compound solvent. Twenty-four to forty hours after the addition of compound, reporter activity for luciferase can be assayed, for example, by addition of the BrightGlo luminescence reagent (Promega) and the Victor3 plate reader (Perkin Elmer). Readings can be normalized to DMSO only treated cells, and normalized activities can then be used in the EC50 calculations.

The structures appear in SMILES notation.

As usually defined, the EC50 is the concentration giving half of the maximal effect. On to `CCOc1ccc(NC(=O)c2n[nH]c3ccc(-c4cncc(CN5CCCCC5)c4)cc23)cn1` [compound 45, N-(6-Ethoxypyridin-3-yl)-5-(5-(piperidin-1-ylmethyl)pyridin-3-yl)-1H-indazole-3-carboxamide], for which the concentration giving a half-maximal response (EC50) in test [1] was 9750 nM; in test [2], 110 nM.
`O=C(Nc1cccnc1)c1n[nH]c2ccc(-c3cncc(CN4CCCCC4)c3)cc12` [compound 46, 5-(5-(Piperidin-1-ylmethyl)pyridin-3-yl)-N-(pyridin-3-yl)-1H-indazole-3-carboxamide]: the results for the EC50 in test [1] and in test [2] were 5060 nM and 15 nM, respectively.
The corresponding values for `O=C(Nc1cnccc1C(F)(F)F)c1n[nH]c2ccc(-c3cncc(CN4CCCCC4)c3)cc12` [compound 47, 5-(5-(Piperidin-1-ylmethyl)pyridin-3-yl)-N-(4-(trifluoromethyl)pyridin-3-yl)-1H-indazole-3-carboxamide] are above 100000 nM and 71 nM.
Turning to `O=C(Nc1cnccc1C(F)(F)F)c1n[nH]c2ccc(-c3cccnc3)cc12` [compound 48, 5-(Pyridin-3-yl)-N-(4-(trifluoromethyl)pyridin-3-yl)-1H-indazole-3-carboxamide], the values for the concentration for a half-maximal effect (EC50) in test [1] and in test [2] were above 100000 nM and at least 10000 nM, respectively.
For `O=C(Nc1cccnc1)c1n[nH]c2ccc(-c3cccc(CN4CCCC4)c3)cc12` [compound 49, N-(Pyridin-3-yl)-5-(3-(pyrrolidin-1-ylmethyl)phenyl)-1H-indazole-3-carboxamide], the figures for the concentration giving a half-maximal response (EC50) in test [1] and in test [2] were above 100000 nM and 57 nM, respectively.
For `O=C(Nc1cccnc1)c1n[nH]c2ccc(-c3ccc(N4CCCC4)nc3)cc12` [compound 51, N-(Pyridin-3-yl)-5-(6-(pyrrolidin-1-yl)pyridin-3-yl)-1H-indazole-3-carboxamide], the values for the EC50 in test [1] and in test [2] were above 100000 nM and 26 nM, respectively.
Take `N#Cc1ccc(NC(=O)c2n[nH]c3ccc(-c4cncc(CN5CCCC5)c4)cc23)cn1` [compound 52, N-(6-Cyanopyridin-3-yl)-5-(5-(pyrrolidin-1-ylmethyl)pyridin-3-yl)-1H-indazole-3-carboxamide]: the results for the EC50 in test [1] and in test [2] were above 100000 nM and 57 nM, respectively.
The corresponding values for `O=C(Nc1ccc(N2CCCC2)nc1)c1n[nH]c2ccc(-c3cccnc3)cc12` [compound 53, 5-(Pyridin-3-yl)-N-(6-(pyrrolidin-1-yl)pyridin-3-yl)-1H-indazole-3-carboxamide] are above 100000 nM and 63 nM.
Turning to `COc1ccc(-c2ccc3[nH]nc(C(=O)Nc4cccnc4)c3c2)cn1` [compound 54, 5-(6-Methoxypyridin-3-yl)-N-(pyridin-3-yl)-1H-indazole-3-carboxamide], the values for the EC50 in test [1] and in test [2] were above 100000 nM and 158 nM, respectively.
Regarding `O=C(Nc1cccnc1)c1n[nH]c2ccc(-c3cncc(Cc4ccccc4)c3)cc12` [compound 55, 5-(5-Benzylpyridin-3-yl)-N-(pyridin-3-yl)-1H-indazole-3-carboxamide], the 50% effective concentration (EC50) was above 100000 nM in test [1] and 44 nM in test [2].
On to `O=C(Nc1cccnc1)c1n[nH]c2ccc(-c3cncc(Oc4ccccc4)c3)cc12` [compound 56, 5-(5-Phenoxypyridin-3-yl)-N-(pyridin-3-yl)-1H-indazole-3-carboxamide], for which the results for the concentration giving a half-maximal response (EC50) in test [1] and in test [2] were 625 nM and 160 nM, respectively.
On to `O=C(Nc1cnccc1C(F)(F)F)c1n[nH]c2ccc(-c3cncc(CN4CCCC4)c3)cc12` [compound 57, 5-(5-(Pyrrolidin-1-ylmethyl)pyridin-3-yl)-N-(4-(trifluoromethyl)pyridin-3-yl)-1H-indazole-3-carboxamide], for which the EC50 in test [1] is above 100000 nM; in test [2] it was at least 10000 nM.
As for `O=C(Nc1cnccc1NC(=O)C1CC1)c1n[nH]c2ccc(-c3cccnc3)cc12` [compound 58, N-(4-(Cyclopropanecarboxamido)pyridin-3-yl)-5-(pyridin-3-yl)-1H-indazole-3-carboxamide], the half-maximal effective concentration (EC50) was above 100000 nM in test [1] and 71 nM in test [2].
The corresponding values for `O=C(NC1CCCCC1)c1cncc(-c2ccc3[nH]nc(C(=O)Nc4cccnc4)c3c2)c1` [compound 59, 5-(5-(Cyclohexylcarbamoyl)pyridin-3-yl)-N-(pyridin-3-yl)-1H-indazole-3-carboxamide] are 14600 nM and 3100 nM.
Regarding `CN1CCN(Cc2cc(F)cc(-c3ccc4[nH]nc(C(=O)Nc5cnccc5C(F)(F)F)c4c3)c2)CC1` [compound 60, 5-(3-Fluoro-5-((4-methylpiperazin-1-yl)methyl)phenyl)-N-(4-(trifluoromethyl)pyridin-3-yl)-1H-indazole-3-carboxamide], the EC50 was above 100000 nM in test [1] and at least 10000 nM in test [2].
With `CN1CCN(Cc2cncc(-c3ccc4[nH]nc(C(=O)Nc5cccnc5)c4c3)c2)CC1` [compound 61, 5-(5-((4-Methylpiperazin-1-yl)methyl)pyridin-3-yl)-N-(pyridin-3-yl)-1H-indazole-3-carboxamide], the EC50 was determined as 12300 nM in test [1] and 239 nM in test [2].
Consider `N#Cc1ccc(NC(=O)c2n[nH]c3ccc(-c4cncc(CN5CCCCC5)c4)cc23)cn1` [compound 62, N-(6-Cyanopyridin-3-yl)-5-(5-(piperidin-1-ylmethyl)pyridin-3-yl)-1H-indazole-3-carboxamide], for which the concentration giving a half-maximal response (EC50) is above 100000 nM in test [1] and 16 nM in test [2].
For the compound `O=C(Nc1ccc(C(F)(F)F)nc1)c1n[nH]c2ccc(-c3cncc(CN4CCCCC4)c3)cc12` [compound 63, 5-(5-(Piperidin-1-ylmethyl)pyridin-3-yl)-N-(6-(trifluoromethyl)pyridin-3-yl)-1H-indazole-3-carboxamide], the 50% effective concentration (EC50) in test [1] is 10200 nM; in test [2] it was 100 nM.
The corresponding values for `O=C(Nc1cccnc1)c1n[nH]c2ccc(-c3cncc(CN4CCOCC4)c3)cc12` [compound 64, 5-(5-(Morpholinomethyl)pyridin-3-yl)-N-(pyridin-3-yl)-1H-indazole-3-carboxamide] are 7660 nM and 6 nM.
For `O=C(Nc1ccc(-c2ccccc2)nc1)c1n[nH]c2ccc(-c3cncc(CN4CCCCC4)c3)cc12` [compound 65, N-(6-Phenylpyridin-3-yl)-5-(5-(piperidin-1-ylmethyl)pyridin-3-yl)-1H-indazole-3-carboxamide], the results for the EC50 in test [1] and in test [2] were above 100000 nM and 101 nM, respectively.
On to `N#Cc1cncc(-c2ccc3[nH]nc(C(=O)Nc4cccnc4)c3c2)c1` [compound 66, 5-(5-Cyanopyridin-3-yl)-N-(pyridin-3-yl)-1H-indazole-3-carboxamide], for which the EC50 in test [1] was above 100000 nM; in test [2], at least 10000 nM.
The corresponding values for `O=C(Nc1cccnc1)c1n[nH]c2ccc(-c3cc(F)cc(CN4CCCCC4)c3)cc12` [compound 67, 5-(3-Fluoro-5-(piperidin-1-ylmethyl)phenyl)-N-(pyridin-3-yl)-1H-indazole-3-carboxamide] are above 100000 nM and at least 10000 nM.
On to `O=C(Nc1ccc(C(F)(F)F)nc1)c1n[nH]c2ccc(-c3cncc(CN4CCOCC4)c3)cc12` [compound 68, 5-(5-(Morpholinomethyl)pyridin-3-yl)-N-(6-(trifluoromethyl)pyridin-3-yl)-1H-indazole-3-carboxamide], for which the EC50 in test [1] is 4610 nM; in test [2] it was 48 nM.
Take `O=C(Nc1ccc(N2CCOCC2)nc1)c1n[nH]c2ccc(-c3cncc(CN4CCCCC4)c3)cc12` [compound 69, N-(6-Morpholinopyridin-3-yl)-5-(5-(piperidin-1-ylmethyl)pyridin-3-yl)-1H-indazole-3-carboxamide]: the values for the half-maximal effective concentration (EC50) in test [1] and in test [2] were 12500 nM and 50 nM, respectively.
On to `CN1CCN(c2ccc(NC(=O)c3n[nH]c4ccc(-c5cncc(CN6CCCCC6)c5)cc34)cn2)CC1` [compound 70, N-(6-(4-Methylpiperazin-1-yl)pyridin-3-yl)-5-(5-(piperidin-1-ylmethyl)pyridin-3-yl)-1H-indazole-3-carboxamide], for which the 50% effective concentration (EC50) was determined as 10800 nM in test [1] and 41 nM in test [2].
Regarding `O=C(Nc1ccc(N2CCCC2)nc1)c1n[nH]c2ccc(-c3cncc(CN4CCCCC4)c3)cc12` [compound 71, 5-(5-(Piperidin-1-ylmethyl)pyridin-3-yl)-N-(6-(pyrrolidin-1-yl)pyridin-3-yl)-1H-indazole-3-carboxamide], the EC50 in test [1] was above 100000 nM; in test [2], 25 nM.
For `O=C(Nc1ccc(-c2cccc(F)c2)nc1)c1n[nH]c2ccc(-c3cncc(CN4CCCCC4)c3)cc12` [compound 72, N-(6-(3-Fluorophenyl)pyridin-3-yl)-5-(5-(piperidin-1-ylmethyl)pyridin-3-yl)-1H-indazole-3-carboxamide], the values for the EC50 in test [1] and in test [2] were above 100000 nM and 215 nM, respectively.
